Read-outs that look alike come from different tables or passages of the source.
Key:
[1] = Ex vivo biodistribution of [18F]14 and [18F]15; type: in vivo, Rj:NMRI-Foxn1^nu/nu mice; conditions: mouse, iv, 0.2 nmol; for tissue uptake at 1 h / tissue uptake at 2 h: i.v.; for tissue uptake at 2 h: 120 min post injection
Method: (§1) [^18F]14 and [^18F]15 in ≤4% ethanol–0.01 M PBS were administered intravenously (1.2 ± 0.0 and 2.0 ± 0.1 MBq, respectively, 0.2 nmol, 150 μL) to AR42J tumor-bearing Rj:NMRI-Foxn1^nu/nu mice. At predetermined time points (t = 30, 60, 120, and 240 min), animals were euthanized with CO2 asphyxiation and cervical dislocation, and then the organs were harvested, washed with water, and blotted dry, following with weighing and γ counting from which the % ID/g in tissues was determined.

AR42J xenografts = assay: Ex vivo biodistribution of [18F]14 and [18F]15; type: in vivo, Rj:NMRI-Foxn1^nu/nu mice
Method: as §1

[2] = Enzymatic stability in 50% human plasma-0.01 M PBS; type: in vitro ADME; conditions: 50% (v/v) human plasma-0.01 M PBS, radio-HPLC
Method: Lipophilicity was determined with the shake-flask method as a distribution coefficient between 0.01 M PBS and octanol. Purified radiotracer [^18F]6 (10 μL, ∼200 kBq, 1.5 nmol), [^18F]14 (20 μL, ∼260 kBq, 125 pmol), or [^18F]15 (20 μL, 144 kBq, 67 pmol) in a polypropylene tube containing 1500–2000 μL of each in a 1:1 mixture (1-octanol, 0.02 M PBS, pH 7.4) was shaken mechanically (500 rpm, 10 min) and centrifuged (1000g, 5 min), and samples from each layer (400 μL, n = 4) were measured with a γ-counter. The log D7.4 was calculated as a distribution between the two layers at pH 7.4. [^18F]6 (10 MBq, 40 nmol) diluted with 0.01 M PBS at pH 7.4 (≤1% ethanol, 5300 μL) was incubated for 180 min. At selected time points (5, 30, 60, 90, 120, 150, and 180 min), a sample (100 μL) was injected to radio-HPLC. [^18F]14 and [^18F]15 (29 MBq, 10 nmol) diluted in 2000 μL of 0.01 M PBS (≤1% ethanol) were left to incubate. A sample of [^18F]14 (100 μL) after 9 hours and [^18F]15 at selected time points between 30 and 335 min were injected into HPLC (method A). [^18F]15 (0.6 MBq, 0.134 nmol, 200 μL) formulated in ≤5% EtOH-1 × PBS was added and incubated in 2000 μL of PBS-50% human plasma at 37 °C. A 100 μL sample (at 60, 120, 180, and 240 min, n = 2) was diluted with 200 μL of cold acetonitrile and centrifuged (10,000g, 5 min). […]

[3] = Ex vivo radiometabolite analysis in mouse blood and urine (radio-TLC, radio-HPLC); conditions: for radiotracer intact in blood and urine: 60 min post injection, ex vivo
Method: After tracer injection, CO2 asphyxiation, and cervical dislocation, blood was collected from a cardiac puncture into a tube containing 2 μL of 1% heparin (diluted from 5100 IU/mL) in 0.9% NaCl (aq.). The sample was centrifuged (1000g, 10 min) to separate the plasma from the blood cells. Cold acetonitrile (2 × vol of plasma) was added and centrifuged (10,000g for 5 min) to precipitate the proteins. A sample (100 μL) of the supernatant was injected into HPLC for radio-HPLC analysis. For the tracer [^18F]14, the supernatant was sampled also on TLC for digital autoradiography analysis.
Whole blood from mice were extracted during ex vivo studies, using cardiac puncture. The sample was applied in a microtube containing 1% heparin solution in 0.9% NaCl (aq.) (2 μL); the sample was centrifuged (1000g, 10 min), the total radioactivity in the sample was measured with a γ counter, the supernatant was separated from the pellet (RBC containing fraction), and cold ACN (500 μL) was added. The sample was centrifuged (10,000g, 5 min) to remove the free fraction from the precipitated protein-containing pellet. The pellet (protein-bound fraction) and the supernatant (free fraction) were measured with a γ counter, and a sample (100 μL) was injected into HPLC and spotted (4 μL) on a TLC plate (radio-TLC, TLC silica gel 60 F254, ACN/water 80:20).
Figure S26. Ex vivo stability of [18F]AmBF3-PEG4-TOC ([18F]14) in AR42J tumor bearing mouse blood 5 and 30 minutes post-injection (Radio-TLC). […]
retardation factor (Rf) of Rf = 40 mm. At 30 minutes post-injection the radiometabolite at 40 mm had disappeared and instead a highly polar metabolite (2.8%) at 4.0 mm was visible, and was accompanied by another metabolite (2.0%) eluting in the immediate vicinity of [18F]14 at Rf = 58 mm. At 60 minutes post-injection the tracer accounted for ≥99% of the radioactivity both in blood and urine (ex vivo). […]
(1 picture or pasted object on this page, not shown here)

[4] = 30 minutes post-injection, radio-TLC

Q: Which results are given for `C[C@@H](O)[C@@H]1NC(=O)[C@H](CCCCN)NC(=O)[C@@H](Cc2c[nH]c3ccccc23)NC(=O)[C@H](Cc2ccc(O)cc2)NC(=O)[C@@H](NC(=O)[C@@H](Cc2ccccc2)NC(=O)CCOCCOCCOCCOCCON=Cc2ccc(CNC(=O)OC3CCCc4cnnc(-c5ccc(CC(=O)NCC[N+](C)(C)C[B-](F)(F)F)cc5)c4CC3)cc2)CSSC[C@@H](C(=O)N[C@H](CO)[C@@H](C)O)NC1=O` (stereo partly shown) [[^18F]14]?
A: tissue to tissue ratio at 1 h ([1]; Rj:NMRI-Foxn1^nu/nu, tumor (AR42J xenograft) / blood, total radioactivity, 60 min post injection, baseline, read-out: T/blood ratio): 0.3; tissue uptake at 1 h ([1]; 60 min post injection, baseline, read-out: blood): 10.2 ± 2.3 %ID/g; tissue uptake at 1 h ([1]; 60 min post injection, baseline, read-out: brain): 0.3 ± 0.1 %ID/g; tissue uptake at 1 h ([1]; 60 min post injection, baseline, read-out: gallbladder): 17.8 ± 5.2 %ID/g; tissue uptake at 1 h ([1]; 60 min post injection, baseline, read-out: heart): 2.4 ± 0.7 %ID/g; tissue uptake at 1 h ([1]; 60 min post injection, baseline, read-out: kidney): 14.3 ± 4.5 %ID/g; tissue uptake at 1 h ([1]; 60 min post injection, baseline, read-out: liver): 30 ± 9.4 %ID/g; tissue uptake at 1 h ([1]; 60 min post injection, baseline, read-out: lung): 6.2 ± 2.4 %ID/g; tissue uptake at 1 h ([1]; 60 min post injection, baseline, read-out: muscle): 0.6 ± 0.2 %ID/g; tissue uptake at 1 h ([1]; 60 min post injection, baseline, read-out: pancreas): 1.1 ± 0.2 %ID/g; tissue uptake at 1 h ([1]; 60 min post injection, baseline, read-out: skin): 2.1 ± 0.9 %ID/g; tissue uptake at 1 h ([1]; 60 min post injection, baseline, read-out: spleen): 1.2 ± 0.5 %ID/g; tissue uptake at 1 h ([1]; 60 min post injection, baseline, read-out: urine): ~85 %ID/g; tissue uptake at 1 h ([1]; 60 min post injection, blocked with octreotide, read-out: blood): 7.4 ± 1.5 %ID/g; tissue uptake at 1 h ([1]; 60 min post injection, blocked with octreotide, read-out: brain): 0.3 ± 0.1 %ID/g; tissue uptake at 1 h ([1]; 60 min post injection, blocked with octreotide, read-out: gallbladder): 10.7 ± 6.3 %ID/g; tissue uptake at 1 h ([1]; 60 min post injection, blocked with octreotide, read-out: heart): 1.9 ± 0.4 %ID/g; tissue uptake at 1 h ([1]; 60 min post injection, blocked with octreotide, read-out: kidney): 11.4 ± 3.7 %ID/g; tissue uptake at 1 h ([1]; 60 min post injection, blocked with octreotide, read-out: liver): 26.2 ± 15.8 %ID/g; tissue uptake at 1 h ([1]; 60 min post injection, blocked with octreotide, read-out: lung): 5.5 ± 2.7 %ID/g; tissue uptake at 1 h ([1]; 60 min post injection, blocked with octreotide, read-out: muscle): 0.5 ± 0.1 %ID/g; tissue uptake at 1 h ([1]; 60 min post injection, blocked with octreotide, read-out: pancreas): 0.8 ± 0.5 %ID/g; tissue uptake at 1 h ([1]; 60 min post injection, blocked with octreotide, read-out: skin): 1.6 ± 0.4 %ID/g; tissue uptake at 1 h ([1]; 60 min post injection, blocked with octreotide, read-out: spleen): 0.9 ± 0.1 %ID/g; tissue uptake at 1 h ([1]; 60 min post injection, blocked with octreotide, read-out: urine): 41.9 ± 15.7 %ID/g; tissue uptake at 1 h ([1]; large intestine with contents, 60 min post injection, baseline, read-out: L. I. (+cont.), large intestine): 1.1 ± 1.1 %ID/g; tissue uptake at 1 h ([1]; large intestine with contents, 60 min post injection, blocked with octreotide, read-out: L. I. (+cont.), large intestine): 0.7 ± 0.3 %ID/g; tissue uptake at 1 h ([1]; occipital bone, 60 min post injection, blocked with octreotide, read-out: bone, occipital): 1.1 ± 0.5 %ID/g; tissue uptake at 2 h ([1]; occipital bone, read-out: bone, occipital): 1.7 ± 0.1 %ID/g; tissue uptake at 1 h ([1]; small intestine with contents, 60 min post injection, baseline, read-out: S. I. (+cont.), small intestines): 2.6 ± 0.8 %ID/g; tissue uptake at 1 h ([1]; small intestine with contents, 60 min post injection, blocked with octreotide, read-out: S. I. (+cont.), small intestines): 1.9 ± 0.4 %ID/g; tissue uptake at 1 h ([1]; stomach with contents, 60 min post injection, baseline, read-out: stomach (+cont.)): 0.6 ± 0.2 %ID/g; tissue uptake at 1 h ([1]; stomach with contents, 60 min post injection, blocked with octreotide, read-out: stomach (+cont.)): 0.6 ± 0.2 %ID/g; tissue uptake at 1 h ([1]; tibia bone, 60 min post injection, baseline, read-out: bone, tibia): 1.3 ± 0.6 %ID/g; tissue uptake at 1 h ([1]; tibia bone, 60 min post injection, blocked with octreotide, read-out: bone, tibia): 1 ± 0.6 %ID/g; tissue uptake at 2 h ([1]; tibia bone, read-out: bone, tibia): 2.9 ± 1.4 %ID/g; tissue uptake at 1 h ([1]; tumor, AR42J xenograft, 60 min post injection, baseline, read-out: tumor uptake): 3.1 ± 0.7 %ID/g; tissue uptake at 1 h ([1]; tumor, AR42J xenograft, 60 min post injection, blocked with octreotide, read-out: tumor uptake): 2.2 ± 0.6 %ID/g; urine (AR42J xenografts; 60 min post injection, i.v., baseline): 84.9 ± 58.6 % ID/g; defluorination in vivo (in words) (AR42J xenografts; judged from bone uptake): A minor degree of defluorination could not be ruled out; enzymatic stability (in words) [2]: a polar radiometabolite was detected; slightly polar metabolite in blood (Rf = 40 mm) ([3]; 5 minutes post-injection, radio-TLC): 4%; another metabolite in blood (Rf = 58 mm) [3, 4]: 2.0%; highly polar metabolite in blood (4.0 mm) [3, 4]: 2.8%; radiotracer intact in blood and urine [3]: approximately 99%; radiotracer intact in blood and urine ([3]; listed as [18F]14): ≥ 99%
